Where a SMILES comes first, the peptide text is derived from it. Bridges are numbered along the chain shown (N, C = ends). [ ]: non-standard residue; d: D form. 2Nal = N[C@@H](Cc1ccc2ccccc2c1)C(=O)O; NMeR = CN[C@@H](CCCNC(=N)N)C(=O)O; NMeQ = CN[C@@H](CCC(N)=O)C(=O)O; Cha = N[C@@H](CC1CCCCC1)C(=O)O; dCha = N[C@H](CC1CCCCC1)C(=O)O; Cba = N[C@@H](CC1CCC1)C(=O)O; Tle = CC(C)(C)[C@H](N)C(=O)O; S5 = C=CCCC[C@](C)(N)C(=O)O; Ac4c = NC1(C(=O)O)CCC1; βAla = NCCC(=O)O
System: Colo320DM
Experiment: Colo320DM cell viability
Type: cell-based, human
Text: In some embodiments, a polypeptide described herein inhibits binding of BLC9 to β-catenin when assessed in a cell-viability assay. In some embodiments, the cell-viability assay is a CellTiterGlo luminescent assay, wherein the viability of cells is quantitatively measured. Various cell lines, transformed cell lines or primary cells derived from a healthy subject or subject suffering from a disease can be used in this assay.

Row | IC50 | Structure (SMILES)
1 | 2680 nM | CC[C@H](C)[C@@H]1NC(=O)[C@@](C)(NC(=O)[C@H](CCCNC(=N)N)NC(=O)[C@H](CC(C)C)NC(=O)[C@@H](NC(=O)[C@H](CCC(N)=O)NC(=O)[C@H](CC(C)C)NC(=O)[C@H](CO)NC(=O)[C@H](CCCNC(=N)N)NC(=O)[C@H](CCC(=O)O)NC(=O)[C@H](CCCNC(=N)N)NC(=O)[C@H](Cc2c[nH]cn2)NC(C)=O)[C@@H](C)O)CCCC=CCCC[C@@](C)(C(=O)N[C@@H](CC2CCC2)C(=O)N[C@@H](Cc2ccc3ccccc3c2)C(N)=O)NC(=O)[C@H](C)NC(=O)[C@H](CCC(N)=O)NC1=O [SEQ ID NO: 29, HRERSLQTLRXIQAX(CBA)(2-Nal)] (Ac-HRERSLQTLR[S5]IQA[S5][Cba][2Nal]-NH2; staple 11-15)
2 | 2180 nM | CC[C@H](C)[C@@H]1NC(=O)[C@@](C)(NC(=O)[C@H](CCCNC(=N)N)NC(=O)[C@H](CC(C)C)NC(=O)[C@@H](NC(=O)[C@H](CCC(N)=O)N(C)C(=O)[C@@H](CC2CCCCC2)NC(=O)[C@H](CO)NC(=O)[C@H](CCCNC(=N)N)NC(=O)[C@H](CCC(N)=O)NC(=O)[C@H](CCCNC(=N)N)NC(=O)[C@H](Cc2c[nH]cn2)NC(C)=O)[C@@H](C)O)CCCC=CCCC[C@@](C)(C(=O)N[C@@H](CC2CCCCC2)C(=O)N[C@@H](Cc2ccc3ccccc3c2)C(N)=O)NC(=O)[C@H](CCCNC(=N)N)NC(=O)[C@H](CCC(N)=O)NC1=O [SEQ ID NO: 187, HRQRSD(Cha)(N-MeGln)TLRXIQRX(Cha)(2-Nal)] (Ac-HRQRS[dCha][NMeQ]TLR[S5]IQR[S5][Cha][2Nal]-NH2; staple 11-15; N-terminus and C-terminus assumed)
3 | 3250 nM | CC[C@H](C)[C@@H]1NC(=O)[C@@](C)(NC(=O)[C@H](CCCNC(=N)N)N(C)C(=O)[C@H](CC(C)C)NC(=O)[C@@H](NC(=O)[C@H](CCC(N)=O)NC(=O)[C@H](CC(C)C)NC(=O)[C@H](CO)NC(=O)[C@H](CCCNC(=N)N)NC(=O)[C@H](CCC(N)=O)NC(=O)[C@H](CCCNC(=N)N)NC(=O)[C@H](Cc2c[nH]cn2)NC(C)=O)[C@@H](C)O)CCCC=CCCC[C@@](C)(C(=O)N[C@@H](CC2CCCCC2)C(=O)N[C@@H](Cc2ccc3ccccc3c2)C(N)=O)NC(=O)[C@H](CCCNC(=N)N)NC(=O)[C@H](CCC(N)=O)NC1=O [SEQ ID NO: 189, HRQRSLQTL(N-MeArg)XIQRX(Cha)(2-Nal)] (Ac-HRQRSLQTL[NMeR][S5]IQR[S5][Cha][2Nal]-NH2; staple 11-15)
4 | 2540 nM | CC[C@H](C)[C@@H]1NC(=O)[C@@](C)(NC(=O)[C@H](CCCNC(=N)N)NC(=O)[C@H](CC2CCCCC2)NC(=O)[C@]2(C)CCCC=CCCC[C@](C)(NC(=O)[C@H](CCCNC(=N)N)NC(=O)[C@H](CCC(N)=O)NC(=O)[C@H](CCCNC(=N)N)NC(=O)[C@H](Cc3c[nH]cn3)NC(C)=O)C(=O)N[C@@H](CC(C)C)C(=O)N[C@@H](CCC(N)=O)C(=O)N2)CCCC=CCCC[C@@](C)(C(=O)N[C@@H](CC2CCCCC2)C(=O)N[C@@H](Cc2ccc3ccccc3c2)C(N)=O)NC(=O)[C@H](CCCNC(=N)N)NC(=O)[C@H](CCC(N)=O)NC1=O [SEQ ID NO: 92, HRQRXLQX(Cha)RZIQRZ(Cha)(2-Nal)] (Ac-HRQR[S5]LQ[S5][Cha]R[S5]IQR[S5][Cha][2Nal]-NH2; staple 5-8, 11-15)
5 | 5300 nM | CC[C@H](C)[C@@H]1NC(=O)[C@@](C)(NC(=O)[C@H](CCCNC(=N)N)NC(=O)[C@H](CC(C)C)NC(=O)[C@@H](NC(=O)[C@H](CCC(N)=O)NC(=O)[C@H](CC(C)C)NC(=O)[C@H](CO)NC(=O)[C@H](CCCNC(=N)N)NC(=O)[C@H](CCC(=O)O)NC(=O)[C@H](CCCNC(=N)N)NC(=O)[C@H](Cc2c[nH]cn2)NC(C)=O)[C@@H](C)O)CCCC=CCCC[C@@](C)(C(=O)N[C@@H](CC(C)C)C(=O)N[C@@H](Cc2ccc3ccccc3c2)C(N)=O)NC(=O)[C@H](CCCNC(=N)N)NC(=O)[C@H](CCC(N)=O)NC1=O [SEQ ID NO: 6, HRERSLQTLRXIQRXL(2-Nal)] (Ac-HRERSLQTLR[S5]IQR[S5]L[2Nal]-NH2; staple 11-15)
6 | 3320 nM | CC[C@H](C)[C@@H]1NC(=O)[C@@](C)(NC(=O)[C@H](CCCNC(=N)N)NC(=O)[C@H](CC(C)C)NC(=O)[C@@H](NC(=O)[C@H](CCC(N)=O)NC(=O)[C@H](CC(C)C)NC(=O)[C@H](CO)NC(=O)[C@H](CCCNC(=N)N)NC(=O)[C@H](CCC(N)=O)NC(=O)[C@H](CCCNC(=N)N)N(C)C(=O)[C@H](Cc2c[nH]cn2)NC(C)=O)[C@@H](C)O)CCCC=CCCC[C@@](C)(C(=O)N[C@@H](CC2CCC2)C(=O)N[C@@H](Cc2ccc3ccccc3c2)C(N)=O)NC(=O)[C@H](CCCNC(=N)N)NC(=O)[C@H](CCC(N)=O)NC1=O (single isomer, unassigned) [SEQ ID NO: 158, H(R-Me)QRSLQTLRXIQRX(CBA)(2-Nal)]
7 | 1610 nM | CC[C@H](C)[C@@H]1NC(=O)[C@@](C)(NC(=O)[C@H](CCCNC(=N)N)NC(=O)[C@H](CC(C)C)NC(=O)[C@@H](NC(=O)[C@H](CCC(N)=O)NC(=O)[C@H](CC(C)C)NC(=O)[C@H](CO)NC(=O)[C@H](CCCNC(=N)N)NC(=O)[C@H](CCC(=O)O)NC(=O)[C@H](CCCNC(=N)N)NC(C)=O)[C@@H](C)O)CCCC=CCCC[C@@](C)(C(=O)N[C@@H](CC2CCC2)C(=O)N[C@@H](Cc2ccc3ccccc3c2)C(N)=O)NC(=O)[C@H](CCCNC(=N)N)NC(=O)[C@H](CCC(N)=O)NC1=O [SEQ ID NO: 13, RERSLQTLRXIQRX(CBA)(2-Nal)] (Ac-RERSLQTLR[S5]IQR[S5][Cba][2Nal]-NH2; staple 10-14)
8 | 6300 nM | CC[C@H](C)[C@@H]1NC(=O)[C@@](C)(NC(=O)[C@H](CCCNC(=N)N)NC(=O)[C@H](CC(C)C)NC(=O)[C@@H](NC(=O)[C@H](CCC(N)=O)NC(=O)[C@H](CC(C)C)NC(=O)[C@H](CO)NC(=O)[C@H](CCCNC(=N)N)NC(=O)[C@H](CCC(=O)O)NC(=O)[C@H](CCCNC(=N)N)NC(=O)[C@H](Cc2c[nH]cn2)NC(=O)[C@H](CCC(=O)O)NC(=O)[C@H](CC(C)C)NC(=O)[C@H](CCC(N)=O)NC(C)=O)[C@@H](C)O)CCCC=CCCC[C@@](C)(C(=O)N[C@@H](CC(C)C)C(=O)N[C@@H](Cc2ccc3ccccc3c2)C(N)=O)NC(=O)[C@H](CCCNC(=N)N)NC(=O)[C@H](CCC(N)=O)NC1=O [SEQ ID NO: 8, QLEHRERSLQTLRXIQRXL(2-Nal)] (Ac-QLEHRERSLQTLR[S5]IQR[S5]L[2Nal]-NH2; staple 14-18)
9 | 2590 nM | CC[C@H](C)[C@@H]1NC(=O)[C@@](C)(NC(=O)[C@H](CCCNC(=N)N)NC(=O)[C@H](CC(C)C)NC(=O)[C@@H](NC(=O)[C@H](CCC(N)=O)NC(=O)[C@H](CC(C)C)NC(=O)[C@H](CO)NC(=O)[C@H](CCCNC(=N)N)NC(=O)[C@H](CCC(N)=O)NC(=O)[C@H](CCCNC(=N)N)NC(=O)[C@H](Cc2c[nH]cn2)NC(C)=O)[C@@H](C)O)CCCC=CCCC[C@@](C)(C(=O)N[C@H](C(=O)N[C@@H](Cc2ccc3ccccc3c2)C(N)=O)C(C)(C)C)NC(=O)[C@H](CCCNC(=N)N)NC(=O)[C@H](CCC(N)=O)NC1=O [SEQ ID NO: 192, HRQRSLQTLRXIQRX(Tle)(2-Nal)] (Ac-HRQRSLQTLR[S5]IQR[S5][Tle][2Nal]-NH2; staple 11-15)
10 | 830 nM | CC[C@H](C)[C@@H]1NC(=O)[C@@](C)(NC(=O)[C@H](CCCNC(=N)N)NC(=O)[C@H](CC(C)C)NC(=O)[C@]2(C)CCCC=CCCC[C@](C)(NC(=O)[C@H](CCC(=O)O)NC(=O)[C@H](CCCNC(=N)N)NC(C)=O)C(=O)N[C@@H](CO)C(=O)N[C@@H](CC(C)C)C(=O)N[C@@H](CCC(N)=O)C(=O)N2)CCCC=CCCC[C@@](C)(C(=O)N[C@@H](CC(C)C)C(=O)N[C@@H](Cc2ccc3ccccc3c2)C(=O)NCCC(=O)NCCC(N)=O)NC(=O)[C@H](CCCNC(=N)N)NC(=O)[C@H](CCC(N)=O)NC1=O [SEQ ID NO: 40, REXSLQXLRZIQRZL(2-Nal)(β-Ala)(β-Ala)] (Ac-RE[S5]SLQ[S5]LR[S5]IQR[S5]L[2Nal][βAla][βAla]-NH2; staple 3-7, 10-14)
11 | 2150 nM | CC[C@H](C)[C@@H]1NC(=O)[C@@](C)(NC(=O)[C@H](CCCNC(=N)N)NC(=O)[C@H](CC(C)C)NC(=O)[C@@H](NC(=O)[C@H](CCC(N)=O)N(C)C(=O)[C@H](CC(C)C)NC(=O)[C@H](CO)NC(=O)[C@H](CCCNC(=N)N)NC(=O)[C@H](CCC(N)=O)N(C)C(=O)[C@H](CCCNC(=N)N)NC(=O)[C@H](Cc2c[nH]cn2)NC(C)=O)[C@@H](C)O)CCCC=CCCC[C@@](C)(C(=O)N[C@@H](CC2CCC2)C(=O)N[C@@H](Cc2ccc3ccccc3c2)C(N)=O)NC(=O)[C@H](CCCNC(=N)N)NC(=O)[C@H](CCC(N)=O)NC1=O [SEQ ID NO: 155, HR(N-methylQ)RSL(N-methylQ)TLRXIQRX(CBA)(2-Nal)] (Ac-HR[NMeQ]RSL[NMeQ]TLR[S5]IQR[S5][Cba][2Nal]-NH2; staple 11-15)
12 | 3350 nM | CCCCCCCCCCCCCCCC(=O)NCCOCCOCCOCCOCCC(=O)NCCCC[C@H](NC(=O)[C@H](Cc1ccc2ccccc2c1)NC(=O)[C@H](CC1CCC1)NC(=O)[C@]1(C)CCCC=CCCC[C@](C)(NC(=O)[C@H](CCCNC(=N)N)NC(=O)[C@H](CC(C)C)NC(=O)[C@@H](NC(=O)[C@H](CCC(N)=O)NC(=O)[C@H](CC(C)C)NC(=O)[C@H](CO)NC(=O)[C@H](CCCNC(=N)N)NC(=O)[C@H](CCC(N)=O)NC(=O)[C@H](CCCNC(=N)N)NC(=O)[C@H](Cc2c[nH]cn2)NC(C)=O)[C@@H](C)O)C(=O)N[C@@H]([C@@H](C)CC)C(=O)N[C@@H](CCC(N)=O)C(=O)N[C@@H](CCCNC(=N)N)C(=O)N1)C(N)=O [SEQ ID NO: 161, HRQRSLQTLRXIQRX(CBA)(2-Nal)]
13 | > 5000 nM | CC[C@H](C)[C@@H]1NC(=O)[C@@](C)(NC(=O)[C@H](CCCNC(=N)N)NC(=O)[C@H](CC(C)C)NC(=O)[C@@H](NC(=O)[C@H](CCC(N)=O)NC(=O)[C@H](CC(C)C)NC(=O)[C@H](CO)NC(=O)[C@H](CCCNC(=N)N)NC(=O)[C@H](CCC(N)=O)NC(=O)[C@H](CCCNC(=N)N)NC(=O)[C@H](Cc2c[nH]cn2)NC(C)=O)[C@@H](C)O)CCCC=CCCC[C@@](C)(C(=O)NC2(C(=O)N[C@@H](Cc3ccc4ccccc4c3)C(N)=O)CCC2)NC(=O)[C@H](CCCNC(=N)N)NC(=O)[C@H](CCC(N)=O)NC1=O [SEQ ID NO: 176, HRQRSLQTLRXIQRX(AC4C)(2-Nal)] (Ac-HRQRSLQTLR[S5]IQR[S5][Ac4c][2Nal]-NH2; staple 11-15)

Source: patent publication US11591365B2, “BCL9 peptides and variants thereof” (WntRx Pharmaceuticals Inc., priority 2017, dated 2023)
